From PubChem BioAssay AID1794819
Non-standard residues stand in square brackets, D forms with d. Residues, ends and D or L forms follow the SMILES beside them. Sar = CNCC(=O)O

Target: Solute carrier family 15 member 2 (Homo sapiens) (UniProt Q16348)
Experiment: PEPT2 transporter activation by peptide substrates – membrane potential dye, HEK-293 overexpressing cells, pH 6.8/7.4, dose response (AID 1794819)
Conditions: HEK-293 SLC15A2 OE, FLIPR membrane potential dye, as substrate

Solute carrier family 15 member 2 (Homo sapiens), sequence (Q16348 whole entry, looked up): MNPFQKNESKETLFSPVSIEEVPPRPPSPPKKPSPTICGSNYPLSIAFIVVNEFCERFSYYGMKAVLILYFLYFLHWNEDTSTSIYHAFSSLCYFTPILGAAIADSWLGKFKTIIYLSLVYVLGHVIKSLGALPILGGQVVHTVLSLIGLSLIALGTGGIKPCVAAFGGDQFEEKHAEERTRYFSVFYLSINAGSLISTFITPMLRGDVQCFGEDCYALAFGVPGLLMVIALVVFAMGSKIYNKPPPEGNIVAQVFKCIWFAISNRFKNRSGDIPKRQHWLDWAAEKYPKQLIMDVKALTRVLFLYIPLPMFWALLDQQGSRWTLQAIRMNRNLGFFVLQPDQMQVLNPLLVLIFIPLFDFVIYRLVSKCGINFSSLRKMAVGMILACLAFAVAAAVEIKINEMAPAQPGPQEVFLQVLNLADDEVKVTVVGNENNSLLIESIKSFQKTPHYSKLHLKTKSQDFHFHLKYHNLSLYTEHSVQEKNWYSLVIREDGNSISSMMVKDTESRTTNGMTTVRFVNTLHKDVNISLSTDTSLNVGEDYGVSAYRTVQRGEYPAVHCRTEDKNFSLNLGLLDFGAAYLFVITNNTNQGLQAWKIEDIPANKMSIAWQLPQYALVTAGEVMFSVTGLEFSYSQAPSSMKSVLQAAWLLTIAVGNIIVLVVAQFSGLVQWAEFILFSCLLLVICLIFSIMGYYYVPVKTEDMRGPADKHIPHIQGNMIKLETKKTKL

Row | EC50 (pH 6.8) | EC50 (pH 7.4) | Compound
1 | 28 µM |  | NCCC(=O)N[C@@H](Cc1cnc[nH]1)C(=O)O
2 | 39 µM | 123 µM | CN(CC(=O)O)C(=O)CN (H-Gly-[Sar]-OH)
